Each structure is given as a SMILES string. Read-outs that look alike come from different tables or passages of the source. Bounds are passed on as bounds.

The target of assay [1] is T1, CB2 (Homo sapiens, UniProt P34972).
T1 construct: expressed in transfected cells; host or cells: HEK293T cells, calcium phosphate transfection, membrane preparation
As to the kind of experiment: Competitive [3H]CP55,940 radioligand binding, CB2-transfected HEK293T cell membrane. An excerpt:
(§1) To evaluate binding affinity of ABK5 analogs that have a difference in the position of substituents in the N-phenyl ring (Figure 1), we performed competitive radiolabeled ligand binding assays using cell membrane from HEK293T cells transfected with human CB2 receptors. […] ABK5-1, ABK5-2, and ABK5-6 dose-dependently competed with [^3H]CP55,940 and decreased the specific binding of the radiolabeled agonist, which reflects the binding of test compounds to CB2. […] Therefore, ABK5-5 was not considered for further evaluation in this study. […] We also examined CB2 selectivity (versus CB1) of the three compounds by performing similar binding assays using membrane from CB1 expressing HEK293 cells instead of CB2 expressing cells. […] Therefore, ABK5-1 and 5-2 maintained the CB2 subtype selectivity of ABK5.
(§2) In the experiment, 1 × 10^6 HEK293T cells were seeded in a 10-cm cell culture dish and cultured for 24 h. Cells were transfected with CB1 or CB2 using the calcium phosphate method. Approximately one day after transfection, cells were harvested and centrifuged at 4 °C for 5 min at 500× g. The pellet was washed with phosphate buffered saline (PBS) twice and resuspended in PBS containing 1% protease-inhibitor cocktail (Sigma-Aldrich, St. Louis, MO, USA) consisting of 104 mM 4-(2-aminoethyl) benzene sulfonyl fluoride hydrochloride (AEBSF), 80 μM apronitin, 4 mM bestatin, 1.64 mM E-64, 2 mM leupeptin, 1.5 mM pepstatin A. Then the cells were subjected to nitrogen cavitation under 750 psi for 5 min using a Parr cell disruption bomb. The lysate was centrifuged at 500× g for 10 min at 4 °C and the supernatant was spun at 116,000× g for 45 min at 4 °C. The pellet, consisting of the cell membrane expressing CB1 or CB2, was resuspended in TME buffer solution (25 mM Tris-HCl, 5 mM MgCl2, and 1 mM EDTA, pH 7.4) with 7% (w/v) sucrose/TME buffer. The concentration of the membrane protein was determined by the Bradford assay (Bradford, 1976).
Membrane protein was mixed with 1 nM to 10 μM of the test compounds and 1 nM [^3H]CP55,940 (164.9 Ci/mmol; PerkinElmer life Sciences, Waltham, MA, USA), and TME buffer supplemented with 0.2% BSA was used to bring the total volume to 200 μL. [^3H]CP55,940 acts as tracer and agonists that bind the target receptor compete with [^3H]CP55,940. Samples were incubated for 1 h at 30 °C. Ten μM unlabeled CP55,940 was used to determine non-specific binding. […] A Beckman Coulter 6500 liquid scintillation counter was used to measure the radioactivity of the samples.
Results are presented as the mean ± standard deviation (S.D.). […] The Ki values in the ligand binding assay were calculated using the Prism software (GraphPad Software Inc., San Diego, CA, USA), using IC50 values obtained from non-linear regression fitted to the one-site binding model. […]

Assay [2] addresses T1, CB2. On the set-up: method as in PMID 30951717. As to conditions: competition with [3H]CP55,940; determined previously; cited from earlier work.
In assay [3] the target is T1, CB2. On the set-up: method as in PMID 30951717. As to conditions: stimulation of [35S]GTPγS binding; determined previously; cited from earlier work. (In general: GTPγS is a poorly hydrolysed GTP analogue; its binding reports G protein activation.)
The target of assay [4] is T2, CB1 receptor (Homo sapiens, UniProt P21554).
T2 construct: expressed in transfected cells; host or cells: HEK293T cells (called 'HEK293 cells' in Results), calcium phosphate transfection, membrane preparation
T2 sequence (P21554 whole entry): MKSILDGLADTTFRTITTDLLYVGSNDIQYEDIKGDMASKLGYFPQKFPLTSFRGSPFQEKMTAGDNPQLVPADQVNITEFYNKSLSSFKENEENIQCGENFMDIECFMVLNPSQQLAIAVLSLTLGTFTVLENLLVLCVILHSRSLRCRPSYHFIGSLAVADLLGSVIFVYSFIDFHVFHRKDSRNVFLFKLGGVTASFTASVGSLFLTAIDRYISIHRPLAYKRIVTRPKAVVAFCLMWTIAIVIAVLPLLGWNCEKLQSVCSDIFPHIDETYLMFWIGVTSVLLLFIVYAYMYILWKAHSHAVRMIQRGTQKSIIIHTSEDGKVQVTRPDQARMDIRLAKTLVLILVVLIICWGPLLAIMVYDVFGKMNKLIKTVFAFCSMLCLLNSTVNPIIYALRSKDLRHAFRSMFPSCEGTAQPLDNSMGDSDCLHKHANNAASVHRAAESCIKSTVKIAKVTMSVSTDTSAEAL
On the set-up: method as in PMID 30951717. Particulars: cited from earlier work.

Assay [5] has as its system TNF-α mRNA in Jurkat cells. Set-up: method as in PMID 33712283. Particulars: concentration not given; cited from earlier work.
Assay [6] has as its system TNF-α production in Jurkat cells. On the set-up: method as in PMID 33712283. As to conditions: concentration not given; cited from earlier work.
Assay [7] deals with T1, CB2. Kind of assay: [35S]GTPγS binding assay (G-protein coupling), CB2 containing HEK293T cell membrane. The format is biochemical. As to conditions: stimulation of [35S]GTPγS binding; mean ± S.D. As for the experimental part:
We also examined if the compounds can induce G-protein coupling and act as CB2 agonists. Three compounds, ABK5-1, ABK5-2, and ABK5-6, were subjected to [^35S]GTPγS binding assays. Increasing concentrations, from 1 nM to 10 μM of the test compounds, were incubated with CB2 containing HEK293T cell membrane and [^35S]GTPγS, which binds to Gi/o in the membrane upon CB2 activation and G-protein coupling. All three compounds stimulated dose-dependent increases of specific [^35S]GTPγS binding (Figure 3).
as §2
GTPγS binding assay buffer ([…], pH 7.4, 3 mM MgCl2, 0.2 mM EGTA, and 100 mM NaCl) membrane protein, 1 nM to 10 μM of the test compounds, 0.1 nM [^35S] GTPγS (1250 Ci/mmol; PerkinElmer Life Sciences, Waltham, MA, USA), 0.1% fatty acid free BSA (w/v), 10 μM guanosine diphosphate (GDP) and GTPγS was incubated for 1 h at 30 °C with shaking. […] A Beckman Coulter 6500 liquid scintillation counter was used to measure the radioactivity of the samples. […]

Assay [8] deals with T2, CB1 receptor. As to the kind of experiment: Competitive [3H]CP55,940 radioligand binding, membrane from CB1 expressing HEK293 cells.
Excerpt: as §1, §2
Membrane protein was mixed with 1 nM to 10 μM of the test compounds and 1 nM [^3H]CP55,940 (164.9 Ci/mmol; PerkinElmer life Sciences, Waltham, MA, USA), and TME buffer supplemented with 0.2% BSA was used to bring the total volume to 200 μL. [^3H]CP55,940 acts as tracer and agonists that bind the target receptor compete with [^3H]CP55,940. Samples were incubated for 1 h at 30 °C. Ten μM unlabeled CP55,940 was used to determine non-specific binding. Reactions were stopped by adding 5% BSA/TME buffer (w/v) and samples were filtered through a Brandel cell harvester using Whatman GF/C filter paper. Ultima Gold XR liquid scintillation cocktail (PerkinElmer Life Sciences, Waltham, MA, USA) was then added and vortexed. A Beckman Coulter 6500 liquid scintillation counter was used to measure the radioactivity of the samples.
Results are presented as the mean ± standard deviation (S.D.). The ligand binding assays and the GTPγS binding assays were both carried out in duplicate for three independent experiments. The Ki values in the ligand binding assay were calculated using the Prism software (GraphPad Software Inc., San Diego, CA, USA), using IC50 values obtained from non-linear regression fitted to the one-site binding model. The Cheng-Prusoff equation [48], which is used for calculation of Ki value is shown below. (1) Ki=IC50/1+L/Kd

T1 sequence (P34972 whole entry): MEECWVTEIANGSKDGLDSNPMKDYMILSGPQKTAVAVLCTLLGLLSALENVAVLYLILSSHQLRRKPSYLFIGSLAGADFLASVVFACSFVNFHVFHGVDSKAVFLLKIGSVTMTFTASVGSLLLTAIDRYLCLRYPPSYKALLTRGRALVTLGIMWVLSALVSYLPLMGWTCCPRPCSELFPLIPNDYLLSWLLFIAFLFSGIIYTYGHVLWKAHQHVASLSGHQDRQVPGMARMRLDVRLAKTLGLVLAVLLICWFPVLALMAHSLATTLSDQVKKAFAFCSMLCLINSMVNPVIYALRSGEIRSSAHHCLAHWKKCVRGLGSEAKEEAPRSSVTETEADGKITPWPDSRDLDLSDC

As to `CCOC(=O)c1ccc(NC(=O)CN(c2cccc(C)c2C)S(=O)(=O)c2ccccc2)cc1` [ABK5-5], on CB2 [1] (data not shown, Ki not calculated), the “CB2 binding, extent as % of total binding” value is given as no more than 60%.
`CCOC(=O)c1ccccc1NC(=O)CN(c1cccc(C)c1C)S(=O)(=O)c1ccccc1` [ABK5, ethyl 2(2-(N-(2,3-dimethylphenyl)phenylsulfonamido)acetamido)benzoate]: the inhibition constant Ki at CB2 [2] was 16 ± 14 nM. Also, at CB2 [3], the EC50 is 4 ± 3 nM. The “Ki CB1 (CP55,940)” value at CB1 receptor [4] (N.B. = no specific binding detected up to 10 μM, determined previously) is recorded as “N.B. ^c”. Further, at CB1 receptor [4], the “CB1 binding: no binding detected up to” value was greater than 10 µM. The “decrease of TNF-α mRNA” value in assay [5] is given as 33%. For the same compound, the “decrease of TNF-α protein level” value in assay [6] was 30%.
`CCOC(=O)c1ccccc1NC(=O)CN(c1cc(C)ccc1C)S(=O)(=O)c1ccccc1` [ABK5-6]: the EC50 on CB2 [7] was 10 ± 5 nM. Moreover, the Ki on CB2 [1] (competition with [3H]CP55,940, mean ± S.D.) was 14 ± 2 nM; on CB1 receptor [8] (competition with [3H]CP55,940, N.B. = no specific binding detected up to 10 μM of test compounds), greater than 1000 nM. Besides, the “CB1 binding (in words)” value on CB1 receptor [8] is reported as “weak CB1 binding in the micromolar range”.

The term Ki denotes the equilibrium dissociation constant of an inhibitor or competing ligand from its target. Usually EC50 stands for the concentration that produces a half-maximal response.

(Values after paper PMC8073686, “Characterization of Subtype Selective Cannabinoid CB2 Receptor Agonists as Potential Anti-Inflammatory Agents” (Pharmaceuticals, 2021).)
